{
  "source": "patent US11160785B2",
  "about": "“Methods and compositions for improving cognitive function” (AgeneBio, Inc., priority 2013, dated 2021)",
  "key": {"aged-impaired rats [1]": {"system": "aged-impaired rats", "experiment": "Radial Arm Maze task, acute brivaracetam or seletracetam (Example 4)", "details": "rat, in vivo"}, "aged-impaired rats [2]": {"system": "aged-impaired rats", "experiment": "water maze task after chronic treatment (Example 4)", "format": "in vivo, rat", "details": "brivaracetam 2 mg/kg/day, osmotic mini-pump", "text": "Another cognitive test that may be used to assess the effects of a test compound on the cognitive impairment of a CNS disorder model animal is the Morris water maze. A water maze is a pool surrounded with a novel set of patterns relative to the maze. […] The subject is trained to locate a submerged escape platform hidden underneath the surface of the pool. During the training trial, a subject is released in the maze (pool) from random starting positions around the perimeter of the pool. The starting position varies from trial to trial. […] After a delay period following the last training trial, a retention test in the absence of the escape platform is given to assess spatial memory. The subject's level of preference for the location of the (now absent) escape platform, as measured by, e.g., the time spent in that location or the number of crossings of that location made by the mouse, indicates better spatial memory, i.e., treatment of cognitive impairment. The preference for the location of the escape platform under different treatment conditions, can then be compared for efficacy of the test compound in treating cognitive impairment associated with CNS disorders.\nThe radial arm maze experiments used acute administration of seletracetam (0-4 mg/kg), brivaracetam (0-4 mg/kg), or saline vehicle given by intraperitoneal injection (in a volume of 1 ml/kg) 30-40 min prior to test sessions. In the chronic treatment experiment, memory-impaired aged rats were implanted subcutaneously in the intrascapular region with osmotic mini-pumps (ALZET, Durect Corporation, Cupertino, Calif.) with brivaracetam (2 mg/kg/day) or saline vehicle starting two weeks prior to assessment in the water maze.\nRats were trained and tested in a novel water maze environment to assess the effect of drug treatment. The water maze used here was housed in a different building and was surrounded by curtains with a novel set of patterns relative to the maze used for initial assessment of cognitive status. The training protocol consisted of 6 trials per day for 2 days to locate a submerged escape platform. […]"}, "MAM-treated rats": {"system": "MAM-treated rats", "details": "cited from earlier work"}, "aged-impaired rats (AI)": {"system": "aged-impaired rats (AI)", "format": "in vivo, rat", "details": "rat, in vivo", "experimental": "FIG. 1 depicts the effects of administering levetiracetam on the spatial memory retention of ten aged-impaired rats (AI) in an eight-arm Radial Arm Maze (RAM) test. Six treatment conditions are employed: vehicle control, levetiracetam (1.25 mg/kg/day), levetiracetam (2.5 mg/kg/day), levetiracetam (5 mg/kg/day), levetiracetam (10 mg/kg/day) and levetiracetam (20 mg/kg/day). In the RAM task used, there is a one-hour delay between presentation of a subset of arms (5 arms available and 3 arms blocked) and completion of the eight-arm win-shift task (eight arms available). Rats are pre-treated 30-40 minutes before daily trials with a one-time drug/control treatment. The number of errors made by the rats during the retention phase is used as a measure of spatial memory retention. Errors are defined as instances when rats enter an arm from which food has already been retrieved in the pre-delay component of the trial or when rats re-visit an arm in the post-delay session that had already been visited. Paired t-tests are used to compare the number of errors between different doses of levetiracetam and vehicle control. […]\nA Radial Arm Maze (RAM) behavioral task is one example of a cognitive test, specifically testing spacial memory (Chappell et al. Neuropharmacology 37: 481-487, 1998). The RAM apparatus consists of, e.g., eight equidistantly spaced arms. A maze arm projects from each facet of a center platform. A food well is located at the distal end of each arm. Food is used as a reward. Blocks can be positioned to prevent entry to any arm. Numerous extra maze cues surrounding the apparatus may also be provided. After habituation and training phases, spatial memory of the subjects may be tested in the RAM under control or test compound-treated conditions. As a part of the test, subjects are pretreated before trials with a vehicle control or one of a range of dosages of the test compound. At the beginning of each trial, a subset of the arms of the eight-arm maze is blocked. Subjects are allowed to obtain food on the unblocked arms to which access is permitted during this initial “information phase” of the trial. Subjects are then removed from the maze for a delay period, e.g., a 60 second delay, a 15 minute delay, a one-hour delay, a two-hour delay, a six hour delay, a 24 hour delay, or longer) between the information phase and the subsequent “retention test,” during which the barriers on the maze are removed, thus allowing access to all eight arms. […] The identity and configuration of the blocked arms vary across trials. The number of “errors” the subjects make during the retention test phase is tracked. An error occurs in the trial if the subjects entered an arm from which food had already been retrieved in the pre-delay component of the trial, or if it re-visits an arm in the post-delay session that had already been visited. A fewer number of errors would indicate better spatial memory. The number of errors made by the test subject, under various test compound treatment regimes, can then be compared for efficacy of the test compound in treating cognitive impairment associated with CNS disorders."}},
  "data": [
    {"smiles": "CCC[C@@H]1CC(=O)N([C@@H](CC)C(N)=O)C1", "note": "[brivaracetam]", "values": [
      {"measurement": "number of errors in the retention phase, effect as a function of dose", "setting": "aged-impaired rats [1]", "result": "significant effect as a function of dose"},
      {"measurement": "spatial bias for the target quadrant compared to the other quadrants (probe test)", "setting": "aged-impaired rats [2]; 14 days, n=3/group, t(2)=10.000, p=0.010", "result": "significant spatial bias for the target quadrant"},
      {"measurement": "time in the target annulus vs vehicle-treated rats", "setting": "aged-impaired rats [2]; t(4)=3.109, p=0.036", "result": "significantly more time in the target annulus"},
      {"measurement": "time in the target quadrant vs vehicle-treated rats", "setting": "aged-impaired rats [2]; t(4)=3.881, p=0.018", "result": "significantly more time in the target quadrant"}
    ]},
    {"smiles": "NC1=N[C@H](O)[C@H]2[C@H]3O[C@]4(O)O[C@@H]([C@@H](O)[C@@]2(N1)[C@@H]4O)[C@]3(O)CO", "note": "[tetrodotoxin]", "values": [
      {"measurement": "augmented amphetamine-induced locomotor behavior", "setting": "MAM-treated rats; rat, in vivo", "result": "normalized the augmented amphetamine-induced locomotor behavior"},
      {"measurement": "elevated DA neuron population activity", "setting": "MAM-treated rats; rat, in vivo", "result": "completely reversed the elevated DA neuron population activity"}
    ]},
    {"smiles": "CC[C@@H](C(N)=O)N1C[C@H](C=C(F)F)CC1=O", "note": "[seletracetam]", "values": [
      {"measurement": "number of errors in the retention phase, effect as a function of dose", "setting": "aged-impaired rats [1]", "result": "significant effect as a function of dose"}
    ]},
    {"smiles": "COc1cc2c(cc1OC)C(=O)C(CC1CCN(Cc3ccccc3)CC1)C2", "note": "(stereo not drawn) [donepezil, 2,3-dihydro-5,6-dimethoxy-2-((1-(phenylmethyl)-4-piperidinyl)methyl)-1H-inden-1-one]", "values": [
      {"measurement": "average no. of errors±SEM", "setting": "aged-impaired rats (AI)", "result": "2.81±0.43"},
      {"measurement": "average no. of errors±standard error of the mean (SEM)", "setting": "aged-impaired rats (AI)", "result": "2.88±0.46"}
    ]},
    {"smiles": "C#Cc1ccc2c(c1)C(c1ccccc1F)=N[C@H](C)c1c(C(=O)OCC)ncn1-2", "note": "[SH-053-2′F-R-CH3]", "values": [
      {"measurement": "number of spontaneously active DA neurons in the ventral tegmental area (VTA)", "setting": "MAM-treated rats; MAM rats, administered systemically or infused into the ventral HPC, to levels of saline-treated rats", "result": "reduces the number of spontaneously active DA neurons"},
      {"measurement": "increased locomotor response to amphetamine", "setting": "MAM-treated rats; MAM-treated rats", "result": "reduced"},
      {"measurement": "cortical-evoked responses of HPC neurons", "setting": "MAM-treated rats; saline-treated and MAM-treated animals", "result": "diminished cortical-evoked responses"}
    ]}
  ]
}
